Experimental data taken from patent US8440707B2, “Antagonists of lysophosphatidic acid receptors” (Amira Pharmaceuticals, Inc., priority 2008, dated 2013).

Experiments:
[1] = system: CCl4-induced liver fibrosis; experiment: Mouse carbon tetrachloride (CCl4)-induced liver fibrosis model; format: in vivo; settings: for collagen deposition in the liver: as compared to the untreated group
Description: Female C57BL/6 mice (Harlan, 20-25 g) housed 4/cage are given free access to food and water and allowed to acclimate for at least 7 days prior to test initiation. After the habituation phase, mice receive CCl4 (0.5-1.0 ml/kg body weight) diluted in corn oil vehicle (100 μL volume) via i.p. injection twice a week for 4-6 weeks. (Higazi, A. A. et al., Clin Exp Immunol. 2008 April; 152(1):163-73. Epub 2008 Feb. 14). Control mice receive an equivalent volume of corn oil vehicle only. Test compound or vehicle is delivered po, ip or sc daily. At the end of the study (4-6 weeks after first i.p. injection of CCl4), mice are sacrificed using inhaled isoflurane and blood is drawn via cardiac puncture for subsequent analysis of ALT/AST levels. The liver is harvested, and one half of the liver is frozen at −80° C. and the other half is fixed in 10% neutral buffered formalin for histological assessment of liver fibrosis using light microscopy (10× magnification). Liver tissue homogenates are analyzed for collagen levels using Sircol (Biocolor Ltd, UK). Fixed Liver tissue is stained using hematoxylin and eosin (H&E) and trichrome and liver fibrosis is determined by quantitative, computer-assisted densitometry of collagen in liver tissue sections using light microscopy. Plasma and liver tissue lysates are also analyzed for concentrations of inflammatory, pro-fibrotic and tissue injury biomarkers including transforming growth factor β1, hyaluronic acid, tissue inhibitor of metalloproteinase-1, matrix matelloproteinase-7, connective tissue growth factor and lactate dehydrogenase activity, using commercially available ELISA. The resulting data are plotted using Graphpad prism and statistical differences between groups determined.

[2] = system: bleomycin-induced lung fibrosis; experiment: Bleomycin-induced lung fibrosis model in mice; format: in vivo
From the text: Female CD-1 mice (Harlan, 25-30 g) are housed 4 per cage, given free access to food and water and allowed to acclimate for at least 7 days prior to test initiation. After the habituation phase, mice are lightly anesthetized with isoflurane (5% in 100% O2) and administered with bleomycin sulfate (0.01-5 U/kg, Henry Schein) via intratracheal instillation (Cuzzocrea S et al. Am J Physiol Lung Cell Mol. Physiol. 2007 May; 292(5):[…]-104. Epub 2007 Jan. 12). Mice are returned to their cages and monitored daily for the duration of the experiment. Test compound or vehicle is delivered po, ip or sc daily. The route and frequency of dosing is based on previously determined pharmacokinetic properties. All animals are sacrificed using inhaled isoflurane 3, 7, 14, 21 or 28 days after bleomycin instillation. Following sacrifice, mice are intubated with a 20 gauge angiocatheter attached to a 1 ml syringe. Lungs are lavaged with saline to obtain bronchoalveolar lavage fluid (BALF) and then removed and fixed in 10% neutral buffered formalin for subsequent histopathological analysis. BALF is centrifuged for 10 min at 800×g to pellet the cells and the cell supernatant removed and frozen at -80° C. for subsequent protein analysis using the DC protein assay kit (Biorad, Hercules, Calif.) and soluble collagen analysis using Sircol (Biocolor Ltd, UK). BALF is analyzed for concentrations of inflammatory, pro-fibrotic and tissue injury biomarkers including transforming growth factor β1, hyaluronic acid, tissue inhibitor of metalloproteinase-1, matrix matelloproteinase-7, connective tissue growth factor and lactate dehydrogenase activity, using commercially available ELISA. The cell pellet is re-suspended in PBS. Total cell counts are then obtained using a Hemavet hematology system (Drew Scientific, Wayne, Pa.) and differential cells counts are determined using Shandon cytospin (Thermo Scientific, Waltham, Mass.). Lung tissue is stained using hematoxylin and eosin (H&E) and trichrome and lung fibrosis is determined by semiquantitative histopathological scoring (Ashcroft T. et al. J. Clin. Path. 1988; 41; 4, 467-470) using light microscopy (10× magnification) and quantitative, computer-assisted densitometry of collagen in lung tissue sections using light microscopy. The data are plotted using Graphpad prism and statistical differences between groups determined.

[3] = system: renal fibrosis; settings: compared with LPA1 (−/−) mice, in which renal fibrosis was significantly attenuated; cited from earlier work
[4] = system: highly peritoneal metastatic pancreatic cancer cell line; settings: cited from earlier work
[5] = system: pancreatic cancer cell lines; settings: cited from earlier work
[6] = system: bone metastasis; settings: cited from earlier work
[7] = chronic setting (14 and 28 day), single bleomycin (1.5 units/kg) instillation
[8] = chronic setting, repeated bleomycin (3.0-5.0 units/kg/week) instillations
[9] = chronic setting (14-days only), single bleomycin instillation (3.0 units)

Structure (SMILES) | effect on collagen deposition compared with pirfenidone ([1]; 30 mg/kg, po, qd) | collagen deposition in the liver [1] | lactate dehydrogenase activity (LDH; tissue injury marker) in BALF ([2]; acute setting (3 day)) | tissue inhibitor of metalloproteinase-1 (TIMP-1; pro-fibrotic marker) concentrations in BALF ([2]; acute setting (3 day)) | total protein in broncheoalveolar lavage fluid (BALF) ([2]; acute setting (3 day)) | fibrosis [2, 7] | inflammatory cell influx [2, 7] | mouse body weight [2, 7] | lung fibrosis [2, 8] | pulmonary resistance [2, 8] | lactate in the BALF ([2]; acute setting (3-day)) | fibrosis [2, 9] | inflammatory cell influx [2, 9] | development of renal fibrosis in UUO mice [3] | LPA-induced and ascites-induced invasion activity [4] | in vitro migration in response to LPA and peritoneal fluid (ascites) from pancreatic cancer patients [5] | metastasis to bone in vivo [6]
Cc1noc(-c2ccc(-c3ccc(CC(=O)O)cc3)cc2)c1NC(=O)O[C@H](C)c1ccccc1Cl [Compound 27, (4′-{4-[(R)-1-(2-Chloro-phenyl)-ethoxycarbonylamino]-3-methyl-isoxazol-5-yl}-biphenyl-4-yl)-acetic acid] | same effect | significantly reduced | significantly reduced | significantly reduced | significantly reduced | decreased | decreased | maintained | decreased | decreased |  |  |  |  |  |  | 
Cc1noc(-c2ccc(-c3ccc(CC(=O)O)cc3)cc2)c1NC(=O)O[C@H](C)c1ccccc1 [Compound 37, {4′-[3-Methyl-4-((R)-1-phenyl-ethoxycarbonylamino)-isoxazol-5-yl]-biphenyl-4-yl}-acetic acid] |  | significantly reduced |  | reduced | reduced |  |  |  |  |  | reduced | decreased | decreased |  |  |  | 
Cc1noc(-c2ccc(CSCCC(=O)O)cc2)c1NC(=O)OC(C)c1ccccc1Cl (centres unmarked) [Ki16425] |  |  |  |  |  |  |  |  |  |  |  |  |  | closely resembled the LPA1 (−/−) mice | blocked | effectively blocked | inhibit
